B1: interferon-alpha-1 (protein, UniProt P01562 24-189, looked up)
Interferon alpha-1/13: CDLPETHSLDNRRTLMLLAQMSRISPSSCLMDRHDFGFPQEEFDGNQFQKAPAISVLHELIQQIFNLFTTKDSSAAWDEDLLDKFCTELYQQLNDLEACVMQEERVGETPLMNADSILAVKKYFRRITLYLTEKKYSPCAWEVVRAEIMRSLSLSTNLQERLRRKE
notes: enhancer molecule, cytokine purchased from Sigma

Tests used:
Format in all cases: cell-based
[1] = test system: panel of cell lines that included NSCLC, HNSCC, melanoma, and CRC; experiment: WST8 in vitro sensitivity to MTAs with and without EM
Protocol: (§1) Day 1: cells were harvested cells from flask (4 mL accutase for T175 for 3-5 minutes), and spin down for 5 mins at 1200 rpm. The supernatant was poured off, and the pellet gently resuspended in 1 mL media. Countess counts were performed, and the cells were diluted in media (10% FBS). With multi-channel pipette, 2500 cells were seeded in 100 uL of media (10% FBS) in each well of 96 well plate. The cells were let to adhere and grow for 24 hours. Day 2: serial drug dilutions of MTAs+/−EMs at 5× of concentrations (as done above) were performed in media (10% FBS). 20 uL of media form each well of the 96 well plate (80 uL media left in wells) was removed, and 20 uL of appropriate 5× drug dilutions was added to each respective well (for a 1× conc). The cells were incubated with drug for 72 hours in 37C incubator. Day 5: 10 uL of WST-8 reagent was added to each well of the 96 well plate and mixed gently. the plates were incubated up to 4 hours at 37C in dark, and absorbance readings were taken at […] and 600 nm wavelengths at 1, 2, 3 and 4h, until control absorbance levels were 1.5-2.0).
We used a panel of cell lines that included NSCLC, HNSCC, melanoma, and CRC. These cell lines are a good model system harboring similar (epi)genetic changes found in patients' tumors. We used the WST8 assay to determine the in vitro sensitivity to various MTAs with and without EM1.

HTB-38 = experiment: WST-8 cell viability assay; settings: in combination with IFN-γ, 72 hours
Protocol: as §1
(§2) WST-8 Assay: MTA and EM effects on cell viability were measured by Cell Counting Kit8 (WST-8) colorimetric assay using water-soluble tetrazolium salt WST-8 reagent (Vita Scientific Cat. #DBOC00128). For the assay, cells were seeded in 96-well plates at 2,500 cells per well, in 100 μL of 10% FBS-containing media. After 24 hours, a 1 nM to 10 μM range of MTA and/or 1 ng/mL to 1 mg/mL range of EM doses was added and incubated for 72 hours. After treatment, a 10% volume of WST-8 reagent was added to each well and cells were incubated at 37° C. for up to 4 hours. Solution absorbance was measured at wavelengths of 450 nm and 600 nm at 1-, 2-, 3-, and 4-hour's incubation. Percentage viability of drug-treated cells was calculated relative to untreated control cells. Results were confirmed by three independent experiments.
(§3) For studying the effects of various molecularly targeted agents (MTAs) and enhancer molecules (EMs) alone as well as in combination: HCC827, PC-9, A427, Calu-6, H2228, H358, H1299, H460, H292, H1838, H2170, and H226 (non-small cell lung cancer; NSCLC); and SK-MES-1 […], CAL27, OE21, KYSE-70, A-253, BICR-16, PE/CA-PJ15 and Ca9-22 (head and neck squamous cell carcinoma; HNSCC); SK-MEL-2, SK-MEL-28, RPMI-7951 and A7 (melanoma); HTB-38 and HCT116 (colorectal cancer; CRC); BxPC-3 and HPAF-II (pancreatic cancer); HEPG2 (hepatocellular carcinoma; HCC); A498 (renal cell carcinoma; RCC) cells were used. Other cell lines, including those from other cancer types, or cells collected from more complex sample types such as xenografts and clinical samples can be used. Ultimately, these combinations can be utilized in various clinical and pre-clinical samples and studies. Using the WST-8 cell viability assay, a MTA+EM-induced anti-cancer/anti-growth activity in multiple cell lines was discovered (FIGS. 8-15). Other viability assays, for example, MTT, HoPI staining, dye exclusion (e.g. trypan blue), can be used readily. […] The cut-off value for classifying a “strong anti-cancer/anti-growth enhancement” was a response resulting in >70% reduction in cell survival compared to untreated control cells (100%), while showing greater reduction compared to both MTA and EM alone.

A498 = experiment: WST-8 cell viability assay; settings: in combination with cetuximab, 72 hours
Protocol: as §1, §2, §3

RPMI-7951 = experiment: WST-8 cell viability assay
Protocol: as §1, §2, §3

OE21 = experiment: WST-8 cell viability assay; settings: in combination with GSK-458, 72 hours
Protocol: as §1, §2, §3

BICR-16 = experiment: WST-8 cell viability assay; settings: in combination with IFN-γ, 72 hours
Protocol: as §1, §2, §3

PC-9 = experiment: WST-8 cell viability assay; settings: in combination with trametinib; PC-9 (EGFR E746_A750del); 72 hours
Protocol: as §1, §2, §3

erlotinib-resistant PC-9 = experiment: WST-8 cell viability assay
Protocol: as §1, §2, §3

Calu-6 = experiment: WST-8 cell viability assay; settings: in combination with IFN-γ, 72 hours
Protocol: as §1, §2, §3

Ca9-22 = experiment: WST-8 cell viability assay
Protocol: as §1, §2, §3

[2] = in combination with GSK-458, 72 hours
[3] = in combination with trametinib, 72 hours

| Molecule | response enhancement (in vitro sensitivity to various MTAs with and without EM, WST8) [1] | anti-cancer/growth enhancement (WST-8 cell viability) (HTB-38) | anti-cancer/growth enhancement (WST-8 cell viability) (A498) | anti-cancer/growth enhancement (WST-8 cell viability) (RPMI-7951; [2]) | anti-cancer/growth enhancement (WST-8 cell viability) (RPMI-7951; in combination with dabrafenib, 72 hours) | anti-cancer/growth enhancement (WST-8 cell viability) (OE21) | anti-cancer/growth enhancement (WST-8 cell viability) (BICR-16) | anti-cancer/growth enhancement (WST-8 cell viability) (PC-9) | anti-cancer/growth enhancement (WST-8 cell viability) (erlotinib-resistant PC-9; [2]) | anti-cancer/growth enhancement (WST-8 cell viability) (erlotinib-resistant PC-9; [3]) | anti-cancer/growth enhancement (WST-8 cell viability) (Calu-6) | anti-cancer/growth enhancement (WST-8 cell viability) (Ca9-22; [2]) | anti-cancer/growth enhancement (WST-8 cell viability) (Ca9-22; in combination with GSK-795, 72 hours) | anti-cancer/growth enhancement (WST-8 cell viability) (Ca9-22; in combination with everolimus, 72 hours) | anti-cancer/growth enhancement (WST-8 cell viability) (Ca9-22; in combination with metformin, 72 hours) | anti-cancer/growth enhancement (WST-8 cell viability) (Ca9-22; in combination with osimertinib, 72 hours) | anti-cancer/growth enhancement (WST-8 cell viability) (Ca9-22; [3]) |
| --- | --- | --- | --- | --- | --- | --- | --- | --- | --- | --- | --- | --- | --- | --- | --- | --- | --- |
| tumor necrosis factor-alpha [EM2] | no, minimal and strong response enhancement | moderate-to-strong anti-cancer/growth enhancement | moderate-to-strong anti-cancer/growth enhancement | moderate-to-strong anti-cancer/growth enhancement | moderate-to-strong anti-cancer/growth enhancement | moderate-to-strong anti-cancer/growth enhancement | moderate-to-strong anti-cancer/growth enhancement | moderate-to-strong anti-cancer/growth enhancement | moderate-to-strong anti-cancer/growth enhancement | moderate-to-strong anti-cancer/growth enhancement | moderate-to-strong anti-cancer/growth enhancement |  |  |  |  |  |  |
| B1 |  |  |  |  |  |  |  |  |  |  |  | anti-cancer/growth enhancement | anti-cancer/growth enhancement | anti-cancer/growth enhancement | anti-cancer/growth enhancement | anti-cancer/growth enhancement | anti-cancer/growth enhancement |
